Results taken from patent EP1925615B1, “Method of fluorine-18 labelling of tropane derivatives” (Orphachem, priority 2006, dated 2008).

Assays:
[1] = Chemical and radiochemical stability of the radiotracer preparation by HPLC; format: physicochemical; conditions: preparation ready for i.v. injection (physiological saline, ethanol below 10%); HPLC D at regular 15-min intervals during 120 min
Protocol: Quality controls of [^18F]LBT-999 ([^18F]-10) were performed on an aliquot of the preparation ready for i.v. injection. The radiotracer preparation was a clear and colourless solution with a measured pH between 5 and 7.
Quality control of [^18F]LBT-999 ([^18F]-10). The radiotracer preparation was visually inspected for clarity, absence of colour and particulates. An aliquot of the preparation was removed for determination of pH using standard pH-paper. Chemical and radiochemical purities were also assessed on this aliquot by HPLC (HPLC D), with a sample of authentic 10 (tR : 2.25 min) which synthesis and characterization were disclosed in Dollé F et al., 2006. Particular attention was paid to the absence of non-radioactive precursor 9 (tR: 3.45 min). Chemical and radiochemical stability of the entire preparation was tested by HPLC (HPLC D) at regular 15-min intervals during 120 min. Specific radioactivity of the radiotracer was calculated from three consecutive HPLC (HPLC D) analyses (average) and determined as follows: The area of the UV absorbance peak corresponding to the radiolabelled product was measured (integrated) on the HPLC chromatogram and compared to a standard curve relating mass to UV absorbance.

serotonine transporter = serotonine transporter (Homo sapiens, UniProt P31645); conditions: cited from earlier work
serotonine transporter, sequence (P31645 whole entry): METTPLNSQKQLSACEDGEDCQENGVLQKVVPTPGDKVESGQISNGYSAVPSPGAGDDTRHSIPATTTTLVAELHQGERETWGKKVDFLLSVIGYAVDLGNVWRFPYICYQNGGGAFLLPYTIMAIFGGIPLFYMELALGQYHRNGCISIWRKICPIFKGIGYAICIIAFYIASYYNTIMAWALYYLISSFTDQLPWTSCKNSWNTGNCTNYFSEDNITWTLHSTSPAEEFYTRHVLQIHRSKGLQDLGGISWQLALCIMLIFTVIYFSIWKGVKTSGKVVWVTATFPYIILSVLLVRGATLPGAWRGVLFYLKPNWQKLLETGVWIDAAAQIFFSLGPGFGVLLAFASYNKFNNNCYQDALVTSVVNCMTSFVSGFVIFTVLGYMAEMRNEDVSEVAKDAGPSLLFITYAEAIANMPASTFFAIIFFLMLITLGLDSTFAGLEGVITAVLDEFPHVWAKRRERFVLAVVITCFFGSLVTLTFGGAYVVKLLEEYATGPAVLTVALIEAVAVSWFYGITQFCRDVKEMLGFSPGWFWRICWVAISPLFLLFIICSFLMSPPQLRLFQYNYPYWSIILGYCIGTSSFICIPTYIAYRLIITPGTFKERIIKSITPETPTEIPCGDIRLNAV

[2] = target: dopamine transporter (DAT); conditions: dopamine transporter (DAT) ligand; cited from earlier work
[3] = target: norepinephrine transporter (Homo sapiens, UniProt P23975); conditions: cited from earlier work
norepinephrine transporter, sequence (P23975 whole entry): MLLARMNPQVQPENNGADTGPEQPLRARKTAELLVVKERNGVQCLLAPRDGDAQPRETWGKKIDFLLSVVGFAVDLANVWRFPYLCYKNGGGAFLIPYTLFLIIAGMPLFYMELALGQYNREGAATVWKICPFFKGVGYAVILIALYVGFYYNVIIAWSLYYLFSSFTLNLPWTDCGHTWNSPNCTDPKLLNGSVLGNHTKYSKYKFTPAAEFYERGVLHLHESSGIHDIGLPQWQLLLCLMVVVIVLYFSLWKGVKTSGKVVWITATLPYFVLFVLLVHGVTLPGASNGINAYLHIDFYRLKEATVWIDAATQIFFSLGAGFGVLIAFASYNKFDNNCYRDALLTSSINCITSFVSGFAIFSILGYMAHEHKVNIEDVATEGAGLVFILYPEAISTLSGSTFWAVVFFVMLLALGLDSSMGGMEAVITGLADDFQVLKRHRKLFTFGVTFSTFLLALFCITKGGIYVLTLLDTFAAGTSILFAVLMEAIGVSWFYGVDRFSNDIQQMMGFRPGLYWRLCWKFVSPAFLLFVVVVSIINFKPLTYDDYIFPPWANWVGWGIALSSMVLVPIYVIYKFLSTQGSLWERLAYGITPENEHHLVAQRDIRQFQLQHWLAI

SMILES	chemically and radiochemically stable [1]	IC50 (serotonine transporter)	Kd [2]	IC50 [3]
COC(=O)[C@H]1[C@@H](c2ccc(C)cc2)C[C@@H]2CC[C@H]1N2C/C=C/C[18F] [[^18F]LBT-999, 8-((E)-4-[^18F]fluoro-but-2-enyl)-3β-p-tolyl-8-aza-bicyclo-[3.2.1]octane-2β-carboxylic acid methyl ester]	at least 120 minutes			
COC(=O)[C@H]1[C@@H](c2ccc(C)cc2)C[C@@H]2CC[C@H]1N2C/C=C/CF [LBT-999, 8-((E)-4-fluoro-but-2-enyl)-3β-p-tolyl-8-aza-bicyclo[3.2.1]octane-2β-carboxylic acid methyl ester]		> 1000 nM	9 nM	> 1000 nM
